Columns and labels:
Experiment in all cases: KinaseProfiler Assay
Format in all cases: biochemical
Aurora-A = target: T1, Aurora-A (Homo sapiens, UniProt O14965); conditions: read-out: Aurora-A, % of Control
T1 sequence (O14965 1-403): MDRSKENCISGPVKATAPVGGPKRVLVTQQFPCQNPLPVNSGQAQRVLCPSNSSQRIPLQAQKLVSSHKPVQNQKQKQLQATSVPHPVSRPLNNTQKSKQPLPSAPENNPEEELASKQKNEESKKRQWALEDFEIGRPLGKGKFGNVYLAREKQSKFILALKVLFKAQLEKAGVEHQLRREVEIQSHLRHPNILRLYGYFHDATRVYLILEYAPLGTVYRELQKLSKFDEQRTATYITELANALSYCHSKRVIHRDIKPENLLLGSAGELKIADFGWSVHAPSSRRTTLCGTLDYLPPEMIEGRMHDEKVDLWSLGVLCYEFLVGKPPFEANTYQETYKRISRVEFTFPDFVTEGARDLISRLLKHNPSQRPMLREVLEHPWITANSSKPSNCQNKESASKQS

CDK2/cyclinE = CDK2/cyclinE (Homo sapiens, UniProt P24941); conditions: read-out: CDK2/cyclinE, % of Control
SGK = SGK (Homo sapiens, UniProt O00141); conditions: 5 ug/ml; read-out: SGK, % of Control
Chain of SGK (O00141 whole entry): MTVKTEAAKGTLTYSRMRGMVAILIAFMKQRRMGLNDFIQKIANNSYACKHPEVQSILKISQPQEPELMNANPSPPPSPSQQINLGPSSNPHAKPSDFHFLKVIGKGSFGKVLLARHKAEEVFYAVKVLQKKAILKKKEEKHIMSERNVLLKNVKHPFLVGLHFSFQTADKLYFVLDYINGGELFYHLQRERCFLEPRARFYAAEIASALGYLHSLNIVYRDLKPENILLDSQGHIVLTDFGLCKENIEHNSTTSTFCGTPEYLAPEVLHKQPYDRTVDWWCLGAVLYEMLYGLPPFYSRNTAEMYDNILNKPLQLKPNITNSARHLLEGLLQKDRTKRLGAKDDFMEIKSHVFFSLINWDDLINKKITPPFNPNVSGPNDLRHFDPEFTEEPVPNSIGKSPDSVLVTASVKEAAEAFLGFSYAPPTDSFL

CDK3/cyclinE = CDK3/cyclinE (Homo sapiens, UniProt Q00526); conditions: 50 ug/ml; read-out: CDK3/cyclinE, % of Control
HIPK3 = HIPK3 (Homo sapiens, UniProt Q9H422); conditions: read-out: HIPK3, % of Control
Chain of HIPK3 (Q9H422 whole entry): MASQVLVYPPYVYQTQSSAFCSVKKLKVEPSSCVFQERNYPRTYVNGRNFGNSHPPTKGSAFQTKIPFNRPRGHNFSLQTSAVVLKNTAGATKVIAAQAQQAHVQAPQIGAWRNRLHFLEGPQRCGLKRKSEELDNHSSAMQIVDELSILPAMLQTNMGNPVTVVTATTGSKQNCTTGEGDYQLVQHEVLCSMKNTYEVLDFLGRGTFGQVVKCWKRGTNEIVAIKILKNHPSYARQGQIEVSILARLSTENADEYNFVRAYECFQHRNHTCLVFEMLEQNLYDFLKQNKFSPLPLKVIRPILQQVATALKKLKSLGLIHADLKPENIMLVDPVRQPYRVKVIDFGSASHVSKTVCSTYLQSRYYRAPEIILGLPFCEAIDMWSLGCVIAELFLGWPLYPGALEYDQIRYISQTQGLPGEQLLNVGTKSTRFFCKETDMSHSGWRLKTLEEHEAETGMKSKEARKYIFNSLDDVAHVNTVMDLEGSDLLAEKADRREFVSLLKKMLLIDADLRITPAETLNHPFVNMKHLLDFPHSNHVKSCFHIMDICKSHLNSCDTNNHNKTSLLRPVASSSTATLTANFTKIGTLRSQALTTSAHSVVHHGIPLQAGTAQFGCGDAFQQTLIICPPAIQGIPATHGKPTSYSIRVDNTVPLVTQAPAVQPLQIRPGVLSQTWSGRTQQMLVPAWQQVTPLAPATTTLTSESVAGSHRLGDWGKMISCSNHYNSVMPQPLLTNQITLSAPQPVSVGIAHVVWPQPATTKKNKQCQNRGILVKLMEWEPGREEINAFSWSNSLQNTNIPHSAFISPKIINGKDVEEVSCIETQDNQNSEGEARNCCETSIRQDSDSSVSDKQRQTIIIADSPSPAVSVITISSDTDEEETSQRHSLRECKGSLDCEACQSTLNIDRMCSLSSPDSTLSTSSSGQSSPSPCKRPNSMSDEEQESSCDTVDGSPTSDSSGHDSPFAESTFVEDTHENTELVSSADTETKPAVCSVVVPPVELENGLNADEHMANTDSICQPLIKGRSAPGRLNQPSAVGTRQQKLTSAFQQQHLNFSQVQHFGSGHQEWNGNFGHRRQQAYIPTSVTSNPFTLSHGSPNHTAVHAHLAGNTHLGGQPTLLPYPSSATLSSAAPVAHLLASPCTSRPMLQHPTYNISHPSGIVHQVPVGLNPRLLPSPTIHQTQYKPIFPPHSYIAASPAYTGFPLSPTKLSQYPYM

PhKγ2 = target: T2, PhKγ2 (Homo sapiens, UniProt P15735); conditions: read-out: PhKγ2, % of Control
T2 sequence (P15735 1-406): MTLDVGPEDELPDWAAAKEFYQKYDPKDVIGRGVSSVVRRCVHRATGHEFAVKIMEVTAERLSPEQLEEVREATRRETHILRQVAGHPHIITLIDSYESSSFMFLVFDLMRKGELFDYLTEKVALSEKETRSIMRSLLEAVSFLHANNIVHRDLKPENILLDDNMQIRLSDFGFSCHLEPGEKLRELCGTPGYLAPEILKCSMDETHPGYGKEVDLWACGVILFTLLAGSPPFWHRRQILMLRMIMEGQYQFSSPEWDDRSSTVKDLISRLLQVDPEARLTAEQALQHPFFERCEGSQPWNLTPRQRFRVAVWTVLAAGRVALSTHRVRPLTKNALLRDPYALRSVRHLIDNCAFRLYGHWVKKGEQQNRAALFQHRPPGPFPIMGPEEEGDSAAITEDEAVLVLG

ErbB4 = ErbB4 (Homo sapiens, UniProt Q15303); conditions: read-out: ErbB4, % of Control
Chain of ErbB4 (Q15303 26-1308): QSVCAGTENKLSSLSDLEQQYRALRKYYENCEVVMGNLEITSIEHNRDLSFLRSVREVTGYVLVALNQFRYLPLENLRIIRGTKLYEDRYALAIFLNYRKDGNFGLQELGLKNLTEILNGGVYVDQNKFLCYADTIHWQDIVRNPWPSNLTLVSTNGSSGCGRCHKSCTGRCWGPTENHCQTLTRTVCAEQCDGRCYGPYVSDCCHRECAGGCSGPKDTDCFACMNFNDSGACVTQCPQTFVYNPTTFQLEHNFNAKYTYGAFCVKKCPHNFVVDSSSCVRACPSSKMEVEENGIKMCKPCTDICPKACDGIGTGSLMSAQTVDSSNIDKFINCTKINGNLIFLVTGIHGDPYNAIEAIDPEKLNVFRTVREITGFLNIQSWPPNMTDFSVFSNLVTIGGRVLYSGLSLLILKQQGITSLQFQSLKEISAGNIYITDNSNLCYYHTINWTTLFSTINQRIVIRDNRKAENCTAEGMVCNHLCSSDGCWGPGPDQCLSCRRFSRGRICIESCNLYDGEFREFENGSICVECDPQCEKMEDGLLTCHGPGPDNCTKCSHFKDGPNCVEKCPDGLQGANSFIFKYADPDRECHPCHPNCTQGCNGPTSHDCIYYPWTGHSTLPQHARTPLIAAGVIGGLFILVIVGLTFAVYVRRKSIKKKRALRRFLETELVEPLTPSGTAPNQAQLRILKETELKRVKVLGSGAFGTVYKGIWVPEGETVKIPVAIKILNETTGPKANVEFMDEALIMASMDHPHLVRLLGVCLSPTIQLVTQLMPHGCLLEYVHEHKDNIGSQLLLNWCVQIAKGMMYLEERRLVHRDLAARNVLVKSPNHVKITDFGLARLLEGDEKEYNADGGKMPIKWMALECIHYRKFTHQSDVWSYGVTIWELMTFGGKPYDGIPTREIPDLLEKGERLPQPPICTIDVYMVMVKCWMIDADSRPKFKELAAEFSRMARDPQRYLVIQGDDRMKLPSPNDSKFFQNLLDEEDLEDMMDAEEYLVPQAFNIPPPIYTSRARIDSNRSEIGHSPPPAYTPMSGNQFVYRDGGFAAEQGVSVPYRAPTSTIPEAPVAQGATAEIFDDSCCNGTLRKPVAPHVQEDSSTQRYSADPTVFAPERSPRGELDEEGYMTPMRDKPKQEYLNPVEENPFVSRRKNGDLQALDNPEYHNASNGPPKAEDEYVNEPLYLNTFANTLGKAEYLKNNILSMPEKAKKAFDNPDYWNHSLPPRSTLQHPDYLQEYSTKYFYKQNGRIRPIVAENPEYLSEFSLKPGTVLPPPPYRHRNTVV

Fgr = Fgr (Homo sapiens, UniProt P09769); conditions: read-out: Fgr, % of Control
Chain of Fgr (P09769 whole entry): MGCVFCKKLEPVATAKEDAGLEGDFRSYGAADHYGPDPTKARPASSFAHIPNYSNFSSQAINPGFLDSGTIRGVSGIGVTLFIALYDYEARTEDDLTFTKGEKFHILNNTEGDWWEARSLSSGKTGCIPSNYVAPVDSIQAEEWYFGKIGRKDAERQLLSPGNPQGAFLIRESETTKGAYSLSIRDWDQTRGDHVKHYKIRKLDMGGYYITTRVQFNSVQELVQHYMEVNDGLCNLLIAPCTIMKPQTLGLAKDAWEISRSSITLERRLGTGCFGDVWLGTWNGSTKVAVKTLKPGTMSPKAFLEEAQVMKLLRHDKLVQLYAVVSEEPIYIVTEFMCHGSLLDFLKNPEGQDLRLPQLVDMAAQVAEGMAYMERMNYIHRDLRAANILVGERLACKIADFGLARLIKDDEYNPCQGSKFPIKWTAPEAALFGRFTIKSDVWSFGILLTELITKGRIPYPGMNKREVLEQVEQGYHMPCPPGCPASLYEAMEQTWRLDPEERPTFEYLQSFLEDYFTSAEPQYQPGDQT

MSK1 = MSK1 (Homo sapiens, UniProt O75582); conditions: read-out: MSK1, % of Control
Chain of MSK1 (O75582 whole entry): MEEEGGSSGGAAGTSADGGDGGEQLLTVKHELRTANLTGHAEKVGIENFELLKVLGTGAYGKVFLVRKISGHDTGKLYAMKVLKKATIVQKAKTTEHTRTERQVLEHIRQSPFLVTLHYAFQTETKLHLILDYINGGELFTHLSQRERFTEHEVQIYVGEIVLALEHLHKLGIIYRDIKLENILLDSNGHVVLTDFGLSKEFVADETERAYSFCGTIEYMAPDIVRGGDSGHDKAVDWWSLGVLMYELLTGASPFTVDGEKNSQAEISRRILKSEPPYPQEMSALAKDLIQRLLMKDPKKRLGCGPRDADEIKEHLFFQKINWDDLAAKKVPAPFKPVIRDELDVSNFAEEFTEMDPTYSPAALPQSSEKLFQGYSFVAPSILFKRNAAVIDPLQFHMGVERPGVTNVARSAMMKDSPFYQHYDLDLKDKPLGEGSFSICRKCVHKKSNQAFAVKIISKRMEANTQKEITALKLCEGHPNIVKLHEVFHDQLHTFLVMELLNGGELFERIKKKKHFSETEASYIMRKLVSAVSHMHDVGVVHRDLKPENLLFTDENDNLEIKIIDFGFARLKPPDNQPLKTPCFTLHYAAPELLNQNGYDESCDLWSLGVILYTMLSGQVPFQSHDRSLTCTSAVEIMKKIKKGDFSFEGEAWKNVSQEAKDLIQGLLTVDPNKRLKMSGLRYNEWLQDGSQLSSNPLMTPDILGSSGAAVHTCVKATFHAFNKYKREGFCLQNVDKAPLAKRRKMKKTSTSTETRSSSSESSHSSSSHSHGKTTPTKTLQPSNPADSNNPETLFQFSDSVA

Pim-1 = Pim-1 (Homo sapiens, UniProt P11309); conditions: read-out: Pim-1, % of Control
Chain of Pim-1 (P11309 whole entry): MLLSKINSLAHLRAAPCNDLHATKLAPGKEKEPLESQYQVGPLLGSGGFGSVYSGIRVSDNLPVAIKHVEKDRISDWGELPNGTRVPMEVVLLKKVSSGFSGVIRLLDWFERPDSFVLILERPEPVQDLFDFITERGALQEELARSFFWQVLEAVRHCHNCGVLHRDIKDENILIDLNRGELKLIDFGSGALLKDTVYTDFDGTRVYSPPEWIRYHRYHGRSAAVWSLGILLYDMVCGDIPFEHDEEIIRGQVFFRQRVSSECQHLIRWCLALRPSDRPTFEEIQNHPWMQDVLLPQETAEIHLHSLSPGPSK

CK1γ2 = CK1γ2 (Homo sapiens, UniProt P78368); conditions: read-out: CK1γ2, % of Control
Chain of CK1γ2 (P78368 whole entry): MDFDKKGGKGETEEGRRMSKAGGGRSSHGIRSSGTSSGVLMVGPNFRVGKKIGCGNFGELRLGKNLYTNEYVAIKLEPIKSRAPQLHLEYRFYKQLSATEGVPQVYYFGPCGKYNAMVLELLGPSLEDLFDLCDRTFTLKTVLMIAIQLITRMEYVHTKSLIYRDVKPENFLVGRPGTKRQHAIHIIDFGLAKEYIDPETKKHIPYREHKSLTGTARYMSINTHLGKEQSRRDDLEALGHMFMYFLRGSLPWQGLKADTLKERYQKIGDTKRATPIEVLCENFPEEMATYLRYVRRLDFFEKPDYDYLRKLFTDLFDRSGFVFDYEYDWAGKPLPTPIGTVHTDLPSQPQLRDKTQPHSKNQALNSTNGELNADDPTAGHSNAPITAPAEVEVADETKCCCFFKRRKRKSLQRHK

Structure (SMILES): COc1cc(O)c(CC=C(C)C)c(O)c1C(=O)/C=C/c1ccc(O)cc1 [Xanthohumol, xanthohumol]
- remaining activity at 5 µg/mL (Aurora-A; 5 ug/ml): 27%
- remaining activity at 25 µg/mL (Aurora-A; 25 ug/ml): 3%
- remaining activity at 50 µg/mL (Aurora-A; 50 ug/ml): 8%
- remaining activity at 1 µg/mL (CDK2/cyclinE; 1 ug/ml): 82%
- remaining activity at 5 µg/mL (CDK2/cyclinE; 5 ug/ml): 86%
- remaining activity at 25 µg/mL (CDK2/cyclinE; 25 ug/ml): 18%
- remaining activity at 5 µg/mL (SGK): 84%
- remaining activity at 50 µg/mL (CDK3/cyclinE): 8%
- remaining activity at 1 µg/mL (HIPK3; 1 ug/ml): 106%
- remaining activity at 5 µg/mL (HIPK3; 5 ug/ml): 102%
- remaining activity at 50 µg/mL (HIPK3; 50 ug/ml): 59%
- remaining activity at 1 µg/mL (PhKγ2; 1 ug/ml): 106%
- remaining activity at 5 µg/mL (PhKγ2; 5 ug/ml): 60%
- remaining activity at 25 µg/mL (PhKγ2; 25 ug/ml): 11%
- remaining activity at 50 µg/mL (PhKγ2; 50 ug/ml): 5%
- remaining activity at 1 µg/mL (ErbB4; 1 ug/ml): 132%
- remaining activity at 5 µg/mL (ErbB4; 5 ug/ml): 85%
- remaining activity at 25 µg/mL (ErbB4; 25 ug/ml): 52%
- remaining activity at 50 µg/mL (ErbB4; 50 ug/ml): 27%
- remaining activity at 5 µg/mL (Fgr; 5 ug/ml): 36%
- remaining activity at 25 µg/mL (Fgr; 25 ug/ml): 10%
- remaining activity at 1 µg/mL (MSK1; 1 ug/ml): 114%
- remaining activity at 5 µg/mL (MSK1; 5 ug/ml): 92%
- remaining activity at 25 µg/mL (MSK1; 25 ug/ml): 31%
- remaining activity at 1 µg/mL (Pim-1; 1 ug/ml): 88%
- remaining activity at 5 µg/mL (Pim-1; 5 ug/ml): 35%
- remaining activity at 50 µg/mL (Pim-1; 50 ug/ml): 3%
- remaining activity at 1 µg/mL (CK1γ2; 1 ug/ml): 92%
- remaining activity at 5 µg/mL (CK1γ2; 5 ug/ml): 48%
- remaining activity at 25 µg/mL (CK1γ2; 25 ug/ml): 30%
- remaining activity at 50 µg/mL (CK1γ2; 50 ug/ml): 12%

Source: patent publication US20080051466A1, “Isoalpha acid based protein kinase modulation cancer treatment” (Metaproteomics, LLC, priority 2006, published 2008)
